Data: patent US12522612B2, “PDE4 inhibitors, pharmaceutical compositions, and therapeutic applications” (BioTheryX, Inc., priority 2019, dated 2026)

Tested on: TNF-α
Assay: Cell-based TNF-α inhibition assay in LPS-induced PBMCs (Meso Scale)
Conditions: PBMC, PBMCs pretreated 1 h, LPS 100 ng/mL 18-24 h, relative to stimulated DMSO control; for inhibition at 0.1 µM: compound concentration 0.1 μM; for inhibition at 1 µM: compound concentration 1 μM
Method: Frozen primary blood mononuclear cells (PBMCs) were quick thawed, washed once with RPMI 1640 media supplemented with 10% fetal bovine serum, 1% penicillin, and 1% streptomycin, and plated in a 96 well plate at 200,000 cells per well. The cells were pretreated with DMSO only as a control or a compound for 1 h, and then induced with LPS (lipopolysaccharide) (100 ng/mL) for 18-24 h. The supernatant was analyzed for TNF-α using the Meso Scale assay. Compound activity was determined as a percentage of the stimulated DMSO control. The results are summarized in Table 1, where A represents a percent inhibition value ≥60%; B represents a percent inhibition value <60% and ≥40%; C represents a percent inhibition value <40% and >20%; and D represents a single percent inhibition value <20%.

Row | Compound | inhibition at 0.1 µM | inhibition at 1 µM
1 | CCOc1cc([C@@H](CS(=O)(=O)C2CC2)N2C(=O)c3csc(NC(=O)C(F)(F)F)c3C2=O)ccc1OC [Compound A7, (S)—N-(5-(2-(cyclopropylsulfonyl)-1-(3-ethoxy-4-methoxyphenyl)ethyl)-4,6-dioxo-5,6-dihydro-4H-thieno[3,4-c]pyrrol-1-yl)-2,2,2-trifluoroacetamide] | < 20% | < 20%
2 | CCOc1cc([C@@H](CS(C)(=O)=O)N2C(=O)c3cccc(NC(=O)CCCCCCCCNCc4ccc(OCc5scc6c5CN(C5CCC(=O)NC5=O)C6=O)cc4)c3C2=O)ccc1OC (stereo partly drawn) [Compound B70, 9-((4-((5-(2,6-Dioxopiperidin-3-yl)-4-oxo-5,6-dihydro-4H-thieno[3,4-c]pyrrol-1-yl)methoxy)benzyl)amino)-N-(2-((S)-1-(3-ethoxy-4-methoxyphenyl)-2-(methylsulfonyl)ethyl)-1,3-dioxoisoindolin-4-yl)nonanamide] | ≥ 60% | ≥ 60%
3 | O=C1CCC(N2Cc3c(cc(F)cc3C3CCN(CCCCCCCCCOc4ccc(C(=O)Nc5c(Cl)cncc5Cl)cc4OCC4CC4)CC3)C2=O)C(=O)N1 (stereo not shown) [Compound B84, 3-(Cyclopropylmethoxy)-N-(3,5-dichloropyridin-4-yl)-4-((9-(4-(2-(2,6-dioxopiperidin-3-yl)-6-fluoro-1-oxoisoindolin-4-yl)piperidin-1-yl)nonyl)oxy)benzamide] |  | ≥ 60%
4 | O=C1CCC(N2C(=O)c3cccc(NCCCCCCCOc4cc(C(=O)Nc5c(Cl)cncc5Cl)ccc4OC(F)F)c3C2=O)C(=O)N1 (stereo not shown) [Compound B72, N-(3,5-Dichloropyridin-4-yl)-4-(difluoromethoxy)-3-((7-((2-(2,6-dioxopiperidin-3-yl)-1,3-dioxoisoindolin-4-yl)amino)heptyl)oxy)benzamide] | ≥ 60% | ≥ 60%
5 | COc1ccc(N2C(=O)c3ccsc3C2=O)cc1OCCCCCCCN1CCC(c2cc(F)cc3c2CN(C2CCC(=O)NC2=O)C3=O)CC1 (stereo not shown) [Compound B65, 5-(3-((7-(4-(2-(2,6-Dioxopiperidin-3-yl)-6-fluoro-1-oxoisoindolin-4-yl)piperidin-1-yl)heptyl)oxy)-4-methoxyphenyl)-4H-thieno[2,3-c]pyrrole-4,6(5H)-dione] |  | < 20%
6 | CCOc1cc([C@@H](CS(C)(=O)=O)N2Cc3c(csc3NC(=O)C(F)(F)F)C2=O)ccc1OC [Compound A1, (S)—N-(5-(1-(3-ethoxy-4-methoxyphenyl)-2-(methylsulfonyl)ethyl)-4-oxo-5,6-dihydro-4H-thieno[3,4-c]pyrrol-1-yl)-2,2,2-trifluoroacetamide] | < 20% | 40 to 60%
7 | CCOc1cc([C@@H](CS(C)(=O)=O)N2C(=O)c3cccc(NC(=O)CCCCNCc4ccc(OCc5scc6c5CN(C5CCC(=O)NC5=O)C6=O)cc4)c3C2=O)ccc1OC (stereo partly drawn) [Compound B78, 5-((4-((5-(2,6-Dioxopiperidin-3-yl)-4-oxo-5,6-dihydro-4H-thieno[3,4-c]pyrrol-1-yl)methoxy)benzyl)amino)-N-(2-((S)-1-(3-ethoxy-4-methoxyphenyl)-2-(methylsulfonyl)ethyl)-1,3-dioxoisoindolin-4-yl)pentanamide] |  | ≥ 60%
8 | O=C1CCC(N2Cc3c(cc(F)cc3C3CCN(CCCCCOc4cc(C(=O)Nc5c(Cl)cncc5Cl)ccc4OC(F)F)CC3)C2=O)C(=O)N1 (stereo not shown) [Compound B46, N-(3,5-Dichloropyridin-4-yl)-4-(difluoromethoxy)-3-((5-(4-(2-(2,6-dioxopiperidin-3-yl)-6-fluoro-1-oxoisoindolin-4-yl)piperidin-1-yl)pentyl)oxy)benzamide] |  | ≥ 60%
9 | CCOc1cc([C@@H](CS(C)(=O)=O)N2C(=O)c3cccc(NC(=O)CCCCCCCCCCCNc4cccc5c4C(=O)N(C4CCC(=O)NC4=O)C5=O)c3C2=O)ccc1OC (stereo partly drawn) [Compound B71, 12-((2-(2,6-Dioxopiperidin-3-yl)-1,3-dioxoisoindolin-4-yl)amino)-N-(2-((S)-1-(3-ethoxy-4-methoxyphenyl)-2-(methylsulfonyl)ethyl)-1,3-dioxoisoindolin-4-yl)dodecanamide] | ≥ 60% | ≥ 60%
10 | Nc1ccc2c(c1)C(=O)N(c1ccc(OCCCCCCCN3CCC(c4cc(F)cc5c4CN(C4CCC(=O)NC4=O)C5=O)CC3)c(OC3CCCC3)c1)C2=O (stereo not shown) [Compound B58, 5-Amino-2-(3-(cyclopentyloxy)-4-((7-(4-(2-(2,6-dioxopiperidin-3-yl)-6-fluoro-1-oxoisoindolin-4-yl)piperidin-1-yl)heptyl)oxy)phenyl)isoindoline-1,3-dione] |  | < 20%
11 | COc1ccc(C2CNC(=O)C2)cc1OCCCCCCCNc1cccc2c1C(=O)N(C1CCC(=O)NC1=O)C2=O (stereo not shown) [Compound B66, 2-(2,6-Dioxopiperidin-3-yl)-4-((7-(2-methoxy-5-(5-oxopyrrolidin-3-yl)phenoxy)-heptyl)amino)isoindoline-1,3-dione] |  | ≥ 60%
12 | COc1ccc(N2Cc3ccc(NCCCCCCCN4CCC(c5cc(F)cc6c5CN(C5CCC(=O)NC5=O)C6=O)CC4)cc3C2=O)cc1OC1CCCC1 (stereo not shown) [Compound B56, 3-(4-(1-(7-((2-(3-(Cyclopentyloxy)-4-methoxyphenyl)-3-oxoisoindolin-5-yl)amino)heptyl)piperidin-4-yl)-6-fluoro-1-oxoisoindolin-2-yl)piperidine-2,6-dione] |  | 40 to 60%
13 | CCOc1cc([C@H](CS(=O)(=O)C2CC2)N2C(=O)c3csc(NC(=O)COC)c3C2=O)ccc1OC [Compound A9, (R)—N-(5-(2-(cyclopropylsulfonyl)-1-(3-ethoxy-4-methoxyphenyl)ethyl)-4,6-dioxo-5,6-dihydro-4H-thieno[3,4-c]pyrrol-1-yl)-2-methoxyacetamide] | 40 to 60% | ≥ 60%
14 | CCOc1cc([C@H](CS(=O)(=O)C2CC2)N2C(=O)c3csc(NC(=O)C(F)(F)F)c3C2=O)ccc1OC [Compound A8, (R)—N-(5-(2-(cyclopropylsulfonyl)-1-(3-ethoxy-4-methoxyphenyl)ethyl)-4,6-dioxo-5,6-dihydro-4H-thieno[3,4-c]pyrrol-1-yl)-2,2,2-trifluoroacetamide] | < 20% | < 20%
15 | O=C1CCC(N2Cc3cc(C4CCN(CCCCCCCOc5cc(C(=O)Nc6c(Cl)cncc6Cl)ccc5OC(F)F)CC4)c(F)cc3C2=O)C(=O)N1 (stereo not shown) [Compound B61, N-(3,5-Dichloropyridin-4-yl)-4-(difluoromethoxy)-3-((7-(4-(2-(2,6-dioxopiperidin-3-yl)-6-fluoro-1-oxoisoindolin-5-yl)piperidin-1-yl)heptyl)oxy)benzamide] | ≥ 60% | ≥ 60%
16 | CCOc1cc([C@@H](CS(C)(=O)=O)N2C(=O)c3cccc(NC(=O)CCOCc4ccc(COCCNc5cccc6c5C(=O)N(C5CCC(=O)NC5=O)C6=O)cc4)c3C2=O)ccc1OC (stereo partly drawn) [Compound B64, 3-((4-((2-((2-(2,6-Dioxopiperidin-3-yl)-1,3-dioxoisoindolin-4-yl)amino)ethoxy)-methyl)benzyl)oxy)-N-(2-((S)-1-(3-ethoxy-4-methoxyphenyl)-2-(methylsulfonyl)ethyl)-1,3-dioxoisoindolin-4-yl)propanamide] | ≥ 60% | ≥ 60%
17 | COc1ccc(C2CNC(=O)C2)cc1OCCCCCCCN1CCC(c2cc(F)cc3c2CN(C2CCC(=O)NC2=O)C3=O)CC1 (stereo not shown) [Compound B53, 3-(6-Fluoro-4-(1-(7-(2-methoxy-5-(5-oxopyrrolidin-3-yl)phenoxy)heptyl)piperidin-4-yl)-1-oxoisoindolin-2-yl)piperidine-2,6-dione] |  | < 20%
18 | CCOc1cc([C@@H](CS(C)(=O)=O)N2C(=O)c3cccc(NC(=O)CCOCCOCCOCCNc4cccc5c4C(=O)N(C4CCC(=O)NC4=O)C5=O)c3C2=O)ccc1OC (stereo partly drawn) [Compound B43, 3-(2-(2-(2-((2-(2,6-Dioxopiperidin-3-yl)-1,3-dioxoisoindolin-4-yl)amino)ethoxy)-ethoxy)ethoxy)-N-(2-((S)-1-(3-ethoxy-4-methoxyphenyl)-2-(methylsulfonyl)ethyl)-1,3-dioxoisoindolin-4-yl)propanamide] | ≥ 60% | ≥ 60%
19 | COc1ccc(C2CNC(=O)C2)cc1OCCCCCCCCC(=O)N[C@H](C(=O)N1C[C@H](O)C[C@H]1C(=O)NCc1ccc(-c2scnc2C)cc1)C(C)(C)C (stereo partly drawn) [Compound B67, (2S,4R)-4-Hydroxy-1-((2S)-2-(9-(2-methoxy-5-(5-oxopyrrolidin-3-yl)phenoxy)-nonanamido)-3,3-dimethylbutanoyl)-N-(4-(4-methylthiazol-5-yl)benzyl)pyrrolidine-2-carboxamide] |  | ≥ 60%
20 | CCOc1cc([C@@H](CS(C)(=O)=O)N2C(=O)c3cccc(NC(=O)CCCCCCNCc4ccc(OCc5scc6c5CN([C@H]5CCC(=O)NC5=O)C6=O)cc4)c3C2=O)ccc1OC [Compound B44, 7-((4-((5-((S)-2,6-Dioxopiperidin-3-yl)-4-oxo-5,6-dihydro-4H-thieno[3,4-c]pyrrol-1-yl)methoxy)benzyl)amino)-N-(2-((S)-1-(3-ethoxy-4-methoxyphenyl)-2-(methylsulfonyl)ethyl)-1,3-dioxoisoindolin-4-yl)heptanamide] |  | ≥ 60%
21 | O=C1CCC(N2Cc3c(cc(F)cc3C3CCN(CCCCCCCOc4ccc(N5C(=O)c6ccccc6C5=O)cc4OC4CCCC4)CC3)C2=O)C(=O)N1 (stereo not shown) [Compound B59, 2-(3-(Cyclopentyloxy)-4-((7-(4-(2-(2,6-dioxopiperidin-3-yl)-6-fluoro-1-oxoisoindolin-4-yl)piperidin-1-yl)heptyl)oxy)phenyl)isoindoline-1,3-dione] |  | < 20%
